Consider 18 molecules from US9834542B2, “LXR modulators” (BRISTOL-MYERS SQUIBB COMPANY, priority 2013, dated 2017).

As a reminder, the pEC50 is the EC50 on a negative log10 scale, so that one unit is a factor of ten.

The target in the assay is T1, LXRβ (Homo sapiens, UniProt P55055).
T1 construct: Co-transfection expression plasmids, comprising full-length LXRα (pCMX-h LXRα[…] or LXRβ (pCMX-hLXRβ)); expressed in transfected cells; host or cells: CV-1 African Green Monkey Kidney Cells
T1 sequence (P55055 1-460): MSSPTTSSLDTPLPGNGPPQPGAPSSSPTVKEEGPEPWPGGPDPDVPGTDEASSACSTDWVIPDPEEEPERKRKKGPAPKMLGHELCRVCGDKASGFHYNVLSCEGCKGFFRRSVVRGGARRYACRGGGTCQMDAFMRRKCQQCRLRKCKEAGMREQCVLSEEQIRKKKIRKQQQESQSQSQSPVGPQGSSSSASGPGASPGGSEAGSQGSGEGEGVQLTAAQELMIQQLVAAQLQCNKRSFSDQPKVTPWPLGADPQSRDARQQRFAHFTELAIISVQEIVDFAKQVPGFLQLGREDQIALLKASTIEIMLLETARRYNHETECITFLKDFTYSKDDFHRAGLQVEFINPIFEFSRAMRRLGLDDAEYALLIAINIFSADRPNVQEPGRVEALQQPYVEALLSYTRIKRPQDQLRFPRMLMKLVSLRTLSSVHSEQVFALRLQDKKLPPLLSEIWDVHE
T1 sequence (P19793 1-462 partner): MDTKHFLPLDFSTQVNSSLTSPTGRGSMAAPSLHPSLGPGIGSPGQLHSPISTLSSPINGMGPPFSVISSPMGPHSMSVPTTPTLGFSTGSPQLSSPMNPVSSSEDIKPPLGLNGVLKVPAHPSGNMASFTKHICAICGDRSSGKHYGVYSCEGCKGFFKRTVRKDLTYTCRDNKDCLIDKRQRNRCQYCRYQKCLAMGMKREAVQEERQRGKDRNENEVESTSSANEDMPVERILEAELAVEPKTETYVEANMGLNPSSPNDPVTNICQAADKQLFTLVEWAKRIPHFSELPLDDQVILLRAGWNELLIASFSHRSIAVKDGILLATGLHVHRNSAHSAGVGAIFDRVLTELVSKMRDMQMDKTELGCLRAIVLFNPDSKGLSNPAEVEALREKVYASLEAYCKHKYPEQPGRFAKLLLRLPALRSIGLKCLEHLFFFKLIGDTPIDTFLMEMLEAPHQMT
Description: Co-transfection assay (LXRE luciferase reporter), LXRβ. Particulars: for pEC50: CV-1 cells transfected with pCMX-hLXRβ and LXREx1-Tk-Luciferase, 20 hours incubation; for Emax: LXRβ co-transfection, relative to high control 1-(2,4-difluorobenzyl)-2-oxo-6-(4-phenoxyphenyl)-4-(trifluoromethyl)-1,2-dihydropyridine-3-carbonitrile, read-out: % Efficacy. Type of assay: cell-based. An outline of the steps:
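Cell-based LXRβ agonism measured as LXRE-luciferase induction in transiently transfected CV-1 cells after 20 h treatment. Potency is the curve-fit EC50; efficacy is expressed as percent of a full-agonist control's maximal response.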
Background: Reporter assays use an easily measured gene product as a stand-in for the process of interest.

The structures appear in SMILES notation. pEC50: −log10 of the molar value.

Regarding `Cc1nc(-c2cc(-c3cccc(S(C)(=O)=O)c3)ccc2-n2cc(C(F)(F)F)nc2C)c(-c2ccc(F)cc2F)o1` [Example 453, 5-(2,4-difluorophenyl)-2-methyl-4-(4-(2-methyl-4-(trifluoromethyl)-1H-imidazol-1-yl)-3′-(methylsulfonyl)biphenyl-3-yl)oxazole], the pEC50 was 7.15 and the Emax is 43%.
In the case of `Cc1nc(-c2cc(-c3cccc(S(C)(=O)=O)c3)ccc2-n2cc(C(F)(F)F)nc2C)c(-c2cccnc2OC(F)F)o1` [Example 388, 5-(2-(difluoromethoxy)pyridin-3-yl)-2-methyl-4-(4-(2-methyl-4-(trifluoromethyl)-1H-imidazol-1-yl)-3′-(methylsulfonyl)biphenyl-3-yl)oxazole], the pEC50 was 5.86 and the Emax was determined as 32%.
For the molecule `Cc1nc(C(F)(F)F)cn1-c1ccc(-c2cccc(S(C)(=O)=O)c2)cc1-c1oc(CCN(C)C)nc1-c1ccc(OC(F)(F)F)cc1` [Example 628, N,N-dimethyl-2-(5-(4-(2-methyl-4-(trifluoromethyl)-1H-imidazol-1-yl)-3′-(methylsulfonyl)-[1,1′-biphenyl]-3-yl)-4-(4-(trifluoromethoxy)phenyl)oxazol-2-yl)ethanamine], the negative logarithm of the EC50 (pEC50) was 6.39 and the Emax worked out at 82%.
Consider `Cc1nc(C(F)(F)F)cn1-c1ccc(-c2cc(Cl)c(CO)c(S(C)(=O)=O)c2)cc1-n1nncc1-c1ccc(Cl)cc1` [Example 70, {3-chloro-3′-[5-(4-chlorophenyl)-1H-1,2,3-triazol-1-yl]-5-(methylsulfony)-4′-[2-methyl-4-(trifluoromethyl)-1H-imidazol-1-yl]biphenyl-4-yl}methanol], for which the negative logarithm of the EC50 (pEC50) was 6.44 and the Emax is 40%.
On the same counts, the results for `Cc1nc(C(F)(F)F)cn1-c1ccc(-c2cc(F)c(CO)c(S(C)(=O)=O)c2)cc1-c1oc(CCO)nc1-c1ccc2c(c1)OC(F)(F)O2` [Example 621, 2-(4-(2,2-difluorobenzo[d][1,3]dioxol-5-yl)-5-(3′-fluoro-4′-(hydroxymethyl)-4-(2-methyl-4-(trifluoromethyl)-1H-imidazol-1-yl)-5′-(methylsulfonyl)-[1,1′-biphenyl]-3-yl)oxazol-2-yl)ethanol] are 6.10 and 81%.
In the case of `Cc1nc(C(F)(F)F)cn1-c1ccc(-c2cccc(S(C)(=O)=O)c2)cc1-n1nncc1-c1ccc(OC(F)(F)C(F)F)cc1` [Example 23, 1-{3′-(methylsulfonyl)-4-[2-methyl-4-(trifluoromethyl)-1H-imidazol-1-yl]biphenyl-3-yl}-5-{4-[(1,1,2,2-tetrafluoroethyl)oxy]phenyl}-1H-1,2,3-triazole], the pEC50 was 6.29 and the Emax was 101%.
As for `Cc1nc(C(F)(F)F)cn1-c1ccc(-c2cccc(S(C)(=O)=O)c2)cc1-c1nc(CC(=O)O)oc1-c1ccc(OC(F)(F)F)cc1` [Example 537, 2-(4-(4-(2-methyl-4-(trifluoromethyl)-1H-imidazol-1-yl)-3′-(methylsulfonyl)-[1,1′-biphenyl]-3-yl)-5-(4-(trifluoromethoxy)phenyl)oxazol-2-yl)acetic acid], the negative logarithm of the EC50 (pEC50) is 6.18 and the Emax came to 100%.
On to `Cc1nc(C(F)(F)F)cn1-c1ccc(-c2cccc(S(C)(=O)=O)c2)cc1-c1nc(C2CC2)oc1-c1ccc2c(c1)OC(F)(F)O2` [Example 482, 2-cyclopropyl-5-(2,2-difluorobenzo[d][1,3]dioxol-5-yl)-4-(4-(2-methyl-4-(trifluoromethyl)-1H-imidazol-1-yl)-3′-(methylsulfonyl)biphenyl-3-yl)oxazole], for which the pEC50 was 7.40 and the Emax was found to be 71%.
Take `Cc1nc(C(F)(F)F)cn1-c1ccc(-c2cccc(S(C)(=O)=O)c2)cc1-c1nc(CCO)oc1-c1ccc(OC(F)(F)F)cc1` [Example 524, 2-(4-(4-(2-methyl-4-(trifluoromethyl)-1H-imidazol-1-yl)-3′-(methylsulfonyl)-[1,1′-biphenyl]-3-yl)-5-(4-(trifluoromethoxy)phenyl)oxazol-2-yl)ethanol]: the negative logarithm of the EC50 (pEC50) is 6.29 and the Emax amounted to 66%.
Take `Cc1nc(C(F)(F)F)cn1-c1c(F)cc(-c2cccc(S(C)(=O)=O)c2)cc1-n1nncc1-c1ccc(Cl)cc1` [Example 204, 5-(4-chlorophenyl)-1-{5-fluoro-3′-(methylsulfonyl)-4-[2-methyl-4-(trifluoromethyl)-1H-imidazol-1-yl]biphenyl-3-yl}-1H-1,2,3-triazole]: the negative-log EC50 (pEC50) is 6.96 and the Emax is 97%.
On the same counts, the results for `Cc1nc(C(F)(F)F)cn1-c1ccc(-c2cc(F)c(CO)c(S(C)(=O)=O)c2)cc1-c1nc(CC(C)C)oc1-c1ccc(OC(F)(F)F)cc1` [Example 561, (3-fluoro-3′-(2-isobutyl-5-(4-(trifluoromethoxy)phenyl)oxazol-4-yl)-4′-(2-methyl-4-(trifluoromethyl)-1H-imidazol-1-yl)-5-(methylsulfonyl)-[1,1′-biphenyl]-4-yl)methanol] are 7.89 and 71%.
On to `CC(=O)c1ccc(-c2cnnn2-c2cc(-c3cccc(S(C)(=O)=O)c3)ccc2-n2cc(C(F)(F)F)nc2C)cc1` [Example 36, 1-[4-(1-{3′-(methylsulfonyl)-4-[2-methyl-4-(trifluoromethyl)-1H-imidazol-1-yl]biphenyl-3-yl}-1H-1,2,3-triazol-5-yl)phenyl]ethanone], for which the pEC50 was 6.14 and the Emax was determined as 60%.
In the case of `Cc1nc(C(F)F)c(Cl)n1-c1ccc(-c2cccc(S(C)(=O)=O)c2)cc1-n1nncc1-c1ccc(OC(F)(F)F)cc1` [Example 172, 1-{4-[5-chloro-4-(difluoromethyl)-2-methyl-1H-imidazol-1-yl]-3′-(methylsulfonyl)biphenyl-3-yl}-5-{4-[(trifluoromethyl)oxy]phenyl}-1H-1,2,3-triazole], the negative-log EC50 (pEC50) is 5.99 and the Emax amounted to 159%.
With `Cc1nc(-c2cc(-c3cccc(S(C)(=O)=O)c3)ccc2-n2cc(C(F)(F)F)nc2C)c(-c2ccc(Cl)c(OC(F)F)c2)o1` [Example 458, 5-(4-chloro-3-(difluoromethoxy)phenyl)-2-methyl-4-(4-(2-methyl-4-(trifluoromethyl)-1H-imidazol-1-yl)-3′-(methylsulfonyl)biphenyl-3-yl)oxazole], the pEC50 was 6.40 and the Emax was found to be 62%.
For `CNS(=O)(=O)c1cccc(-c2ccc(-n3cc(C(F)(F)F)nc3C)c(-c3ocnc3-c3ccc(OC(F)(F)F)cc3)c2)c1` [Example 357, N-methyl-4′-[2-methyl-4-(trifluoromethyl)-1H-imidazol-1-yl]-3′-(4-{4-[(trifluoromethyl)oxy]phenyl}-1,3-oxazol-5-yl)biphenyl-3-sulfonamide], in that order: 6.97 and 98%.
On the same counts, the results for `Cc1ccc(C(C)c2cnnn2-c2cc(-c3cccc(S(=O)(=O)N(C)C)c3)ccc2-n2cc(C(F)(F)F)nc2C)cc1` (stereo not drawn) [Example 105, N,N-dimethyl-3′-{5-[1-(4-methylphenyl)ethyl]-1H-1,2,3-triazol-1-yl}-4′-[2-methyl-4-(trifluoromethyl)-1H-imidazol-1-yl]biphenyl-3-sulfonamide] are 6.64 and 70%.
On to `Cc1nc(-c2cc(-c3cccc(S(=O)(=O)C(F)F)c3)ccc2-n2cc(C(F)(F)F)nc2C)c(-c2ccc3c(c2)OC(F)(F)O3)o1` [Example 417, 5-(2,2-difluorobenzo[d][1,3]dioxol-5-yl)-4-(3′-(difluoromethylsulfonyl)-4-(2-methyl-4-(trifluoromethyl)-1H-imidazol-1-yl)biphenyl-3-yl)-2-methyloxazole], for which the negative-log EC50 (pEC50) is 7.37 and the Emax was found to be 56%.
As to `Cc1nc(-c2cc(-c3cc(F)c(CO)c(S(C)(=O)=O)c3)ccc2-n2cc(C(F)(F)F)nc2C)c(-c2ccc3c(c2)OCCO3)o1` [Example 444, (3′-(5-(2,3-dihydrobenzo[b][1,4]dioxin-6-yl)-2-methyloxazol-4-yl)-3-fluoro-4′-(2-methyl-4-(trifluoromethyl)-1H-imidazol-1-yl)-5-(methylsulfonyl)biphenyl-4-yl)methanol], the negative-log EC50 (pEC50) was 6.90 and the Emax amounted to 74%.
